Results taken from US9765074B2, “Inhibitors of the renal outer medullary potassium channel” (Merck Sharp & Dohme Corp., priority 2013, dated 2017).

Biological target: T1, hROMK (hKir1.1) (Homo sapiens, UniProt P48048)
T1 construct: expressed in transfected cells
T1 sequence (P48048 1-391): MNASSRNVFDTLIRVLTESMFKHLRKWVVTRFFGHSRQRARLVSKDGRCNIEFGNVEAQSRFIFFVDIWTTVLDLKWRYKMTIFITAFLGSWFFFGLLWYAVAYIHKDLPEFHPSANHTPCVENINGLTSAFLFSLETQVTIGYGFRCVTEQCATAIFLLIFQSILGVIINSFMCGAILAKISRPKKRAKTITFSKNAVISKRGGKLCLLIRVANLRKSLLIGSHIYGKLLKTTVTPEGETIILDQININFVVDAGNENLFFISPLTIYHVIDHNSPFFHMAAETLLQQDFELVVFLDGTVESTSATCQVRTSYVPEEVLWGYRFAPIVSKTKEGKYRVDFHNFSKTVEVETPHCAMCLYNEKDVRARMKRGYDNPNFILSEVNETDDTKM
Assay: Thallium Flux Assay (ROMK channel functional thallium flux, FLIPR-Tetra)
Assay type: cell-based
Details: HEK293 cells stably expressing hROMK (hKir1.1); 30 min compound incubation
Experimental: The following Thallium Flux Assay was performed on each of the final product compounds in the Examples.
Cell Culture Conditions—HEK293 cells stably expressing hROMK (hKir1.1) were grown at 37° C. in a 10% CO2 humidified incubator in complete growth media: Dulbecco's Modified Eagle Medium supplemented with non-essential amino acids, Penicillin/Streptomycin/Glutamine, G418 and FBS. At >80% confluency, aspirate the media from the flask and rinse with 10 mL Calcium/Magnesium-free PBS. Add 5 mL of 1× trypsin (prepared in Ca/Mg Free PBS) to T-225 flask and return flask to 37° C./CO2 incubator for 2-3 minutes. To dislodge the cell, gently bang the side of the flask with your hand. Triturate the cells completely and then transfer the cells to 25 mL complete media. Centrifuge at 1,500 rpm for 6 min followed by resuspension in complete growth media and determine cell concentration. For typical re-seeding, 4E6 cells/T-225 flask will attain >80% confluency in 4 days. Under ideal growth conditions and appropriate tissue culture practices, this cell line is stable for 40-45 passages. FluxOR Kit Components (Invitrogen F10017) • FluxOR™ Reagent (Component A) • FluxOR™ Assay Buffer (Component B)—10× Concentrate • PowerLoad™ Concentrate (Component C)—100× Concentrate • Probenecid (Component D)—Lyophilized sample is kept at −20° C. Water soluble, 100× after solubilization in 1 mL water. Store at 4° C. • FluxOR™ Chloride-free Buffer (Component E)—5× Concentrate • Potassium sulfate (K2SO4) Concentrate (Component F)—125 mM in water. Store at 4° C. • Thallium sulfate (Tl2SO4) Concentrate (Component G)—50 mM in water. Store at 4° C. • DMSO (dimethyl sulfoxide, Component H)—1 mL (100%) Reagent Preparation: FluxOR Working Solutions • 1000× FluxOR™ Reagent: Reconstitute a vial of component A in 100 μl DMSO; Mix well; Store 10 μl aliquots at −20° C. • 1× FluxOR™ Assay Buffer: Dilute Component B 10-fold with water; Adjust pH to 7.4 with Hepes/NaOH; Filter and store at 4° C. • Probenecid/Assay Buffer: 100 mL of 1× FluxOR™ Assay Buffer; 1 mL of reconstituted component D; Store at 4° C. • Loading Buffer (per microplate): 10 μl 1000× FluxOR™ Reagent; 100 μl component C; 10 mL Probenecid/Assay Buffer • Compound Buffer (per microplate): 20 mL Probenecid/Assay Buffer; 0.3 mM ouabain (10 mM ouabain in water can be stored in amber bottle/aluminum foil at room temperature); Test compound • 1× FluxOR™ Chloride-Free Buffer: Prepare 1× working solution in water. Can be stored at room temperature • Stimulant Buffer (prepared at 5× final concentration in 1× FluxOR™ Chloride-Free Buffer): 7.5 mM Thallium sulfate and 0.75 mM Potassium sulfate (to give a final assay concentration of 3 mM Thallium/0.3 mM Potassium). Store at 4° C. when not in use. If kept sterile, this solution is good for months. Assay Protocol—The ROMK channel functional thallium flux assay is performed in 384 wells, using the FLIPR-Tetra instrument. HEK-hKir1.1 cells are seeded in Poly-D-Lysine microplates and kept in a 37° C.-10% CO2 incubator overnight. On the day of the experiment, the growth media is replaced with the FluxOR™ reagent loading buffer and incubated, protected from light, at ambient temperature (23-25° C.) for 90 min. The loading buffer is replaced with assay buffer±test compound followed by 30 min incubation at ambient temperature, where the Thallium/Potassium stimulant is added to the microplate. Step Protocol • 1. Seed HEK-hKir1.1 cells (50 μl at 20,000 cells/well) in 384-well PDL coated Microplates • 2. Allow cells to adhere overnight in humidified 37° C./10% CO2 incubator • 3. Completely remove cell growth media from microplate and replace with 25 μl loading buffer • 4. Incubate Microplate at room temperature, protected form light, for 90 min • 5. Remove loading buffer and replace with 25 μl 1× Assay Buffer±test compound. • 6. Incubate microplate at room temperature, protected from light, for 30 min • 7. At FLIPR-Tetra 384: Add stimulant (Thallium/Potassium) solution to microplate and monitor fluorescence. […]

| SMILES | IC50 |
| --- | --- |
| CC1=C(N2C(=O)C3(CCN(C[C@H](O)c4ccc(-n5cnnn5)nc4C)CC3)CC2C)COC1=O (mixture of isomers) [Example 56, 8-{(2R)-2-hydroxy-2-[2-methyl-6-(1H-tetrazol-1-yl)pyridin-3-yl]ethyl}-3-methyl-2-(4-methyl-5-oxo-2,5-dihydrofuran-3-yl)-1-oxo-2-aza-8-azoniaspiro[4.5]decane] | 20 nM |
| CC1=C(N2C(=O)C3(CCN(C[C@H](O)c4ccc(-n5cnnn5)nc4C)CC3)CC2C)COC1=O (mixture of isomers) [Example 57, 8-{(2R)-2-hydroxy-2-[2-methyl-6-(1H-tetrazol-1-yl)pyridin-3-yl]ethyl}-3-methyl-2-(4-methyl-5-oxo-2,5-dihydrofuran-3-yl)-1-oxo-2-aza-8-azoniaspiro[4.5]decane] | 20 nM |
| CC1=C(N2C(=O)C3(CCN(C[C@@H](O)c4ccc(-n5cnnn5)nc4C)CC3)CC2C)COC1=O (mixture of isomers) [Example 58, 8-{(2S)-2-hydroxy-2-[2-methyl-6-(1H-tetrazol-1-yl)pyridin-3-yl]ethyl}-3-methyl-2-(4-methyl-5-oxo-2,5-dihydrofuran-3-yl)-1-oxo-2-aza-8-azoniaspiro[4.5]decane] | 60 nM |
| CC1=C(N2C(=O)C3(CCN(C[C@@H](O)c4ccc(-n5cnnn5)nc4C)CC3)CC2C)COC1=O (mixture of isomers) [Example 59, 8-{(2S)-2-hydroxy-2-[2-methyl-6-(1H-tetrazol-1-yl)pyridin-3-yl]ethyl}-3-methyl-2-(4-methyl-5-oxo-2,5-dihydrofuran-3-yl)-1-oxo-2-aza-8-azoniaspiro[4.5]decane] | 50 nM |
| Cc1nc(-n2cnnn2)cnc1C(O)CN1CCC2(CC1)C[C@H](C)N(C1=CC(=O)OC1)C2=O (mixture of isomers) [Example 165, (3S)-8-{2-hydroxy-2-[3-methyl-5-(1H-tetrazol-1-yl)pyrazin-2-yl]ethyl}-3-methyl-2-(5-oxo-2,5-dihydrofuran-3-yl)-2,8-diazaspiro[4.5]decan-1-one] | 10 nM |
| Cc1nc(-n2cnnn2)cnc1C(O)CN1CCC2(CC1)C[C@H](C)N(C1=CC(=O)OC1)C2=O (mixture of isomers) [Example 168, (3S)-8-{2-hydroxy-2-[3-methyl-5-(1H-tetrazol-1-yl)pyrazin-2-yl]ethyl}-3-methyl-2-(5-oxo-2,5-dihydrofuran-3-yl)-2,8-diazaspiro[4.5]decan-1-one] | 10 nM |
| Cc1nc(-n2cnnn2)cnc1C(O)CN1CCC2(CC1)C[C@H](C)N(C1=CC(=O)OC1)C2=O (mixture of isomers) [Example 169, (3S)-8-{2-hydroxy-2-[3-methyl-5-(1H-tetrazol-1-yl)pyrazin-2-yl]ethyl}-3-methyl-2-(5-oxo-2,5-dihydrofuran-3-yl)-2,8-diazaspiro[4.5]decan-1-one] | 10 nM |
| COC1CN(C2=CC(=O)OC2)C(=O)C12CCN(C[C@H](O)c1ccc(-n3cnnn3)nc1)CC2 (mixture of isomers) [Example 206, 8-((R)-2-(6-(1H-tetrazol-1-yl)pyridin-3-yl)-2-hydroxyethyl)-4-methoxy-2-(5-oxo-2,5-dihydrofuran-3-yl)-2,8-diazaspiro[4.5]decan-1-one] | 50 nM |
| COC1CN(C2=CC(=O)OC2)C(=O)C12CCN(C[C@H](O)c1ccc(-n3cnnn3)nc1)CC2 (mixture of isomers) [Example 207, 8-((R)-2-(6-(1H-tetrazol-1-yl)pyridin-3-yl)-2-hydroxyethyl)-4-methoxy-2-(5-oxo-2,5-dihydrofuran-3-yl)-2,8-diazaspiro[4.5]decan-1-one] | 40 nM |
| CCC1CC2(CCN(C[C@H](O)c3ccc(-n4cnnn4)nc3)CC2)C(=O)N1C1=CC(=O)OC1 (mixture of isomers) [Example 218, 3-ethyl-8-{(2R)-2-hydroxy-2-[6-(1H-tetrazol-1-yl)pyridin-3-yl]ethyl}-2-(5-oxo-2,5-dihydrofuran-3-yl)-2,8-diazaspiro[4.5]decan-1-one] | 10 nM |
| CCC1CC2(CCN(C[C@H](O)c3ccc(-n4cnnn4)nc3)CC2)C(=O)N1C1=CC(=O)OC1 (mixture of isomers) [Example 219, 3-ethyl-8-{(2R)-2-hydroxy-2-[6-(1H-tetrazol-1-yl)pyridin-3-yl]ethyl}-2-(5-oxo-2,5-dihydrofuran-3-yl)-2,8-diazaspiro[4.5]decan-1-one] | 10 nM |
| CCC1CC2(CCN(C[C@H](O)c3cnc(-n4cnnn4)cn3)CC2)C(=O)N1C1=CC(=O)OC1 (mixture of isomers) [Example 220, 3-ethyl-8-{(2S)-2-hydroxy-2-[5-(1H-tetrazol-1-yl)pyrazin-2-yl]ethyl}-2-(5-oxo-2,5-dihydrofuran-3-yl)-2,8-diazaspiro[4.5]decan-1-one] | 40 nM |

Now from value to molecule:

| IC50 | SMILES |
| --- | --- |
| 70 nM | O=C1C=C(N2C(=O)C3(CCN(C[C@H](O)c4ccc(-n5cnnn5)nn4)CC3)CC2C2CC2)CO1 (mixture of isomers) [Example 210, 3-cyclopropyl-8-{(2S)-2-hydroxy-2-[6-(1H-tetrazol-1-yl)pyridazin-3-yl]ethyl}-2-(5-oxo-2,5-dihydrofuran-3-yl)-2,8-diazaspiro[4.5]decan-1-one] |
| 40 nM | O=C1C=C(N2C(=O)C3(CCN(C[C@H](O)c4ccc(-n5cnnn5)nn4)CC3)CC2C2CC2)CO1 (mixture of isomers) [Example 211, 3-cyclopropyl-8-{(2S)-2-hydroxy-2-[6-(1H-tetrazol-1-yl)pyridazin-3-yl]ethyl}-2-(5-oxo-2,5-dihydrofuran-3-yl)-2,8-diazaspiro[4.5]decan-1-one] |
| 120 nM | O=C1C=C(N2C(=O)C3(CCN(C[C@H](O)c4cnc(-n5cnnn5)cn4)CC3)CC2C2CC2)CO1 (mixture of isomers) [Example 212, 3-cyclopropyl-8-{(2S)-2-hydroxy-2-[5-(1H-tetrazol-1-yl)pyrazin-2-yl]ethyl}-2-(5-oxo-2,5-dihydrofuran-3-yl)-2,8-diazaspiro[4.5]decan-1-one] |
| 40 nM | O=C1C=C(N2C(=O)C3(CCN(C[C@H](O)c4cnc(-n5cnnn5)cn4)CC3)CC2C2CC2)CO1 (mixture of isomers) [Example 213, 3-cyclopropyl-8-{(2S)-2-hydroxy-2-[5-(1H-tetrazol-1-yl)pyrazin-2-yl]ethyl}-2-(5-oxo-2,5-dihydrofuran-3-yl)-2,8-diazaspiro[4.5]decan-1-one] |
| 30 nM | O=C1C=C(N2C(=O)C3(CCN(C[C@H](O)c4ccc(-n5cnnn5)nc4)CC3)CC2C2CC2)CO1 (mixture of isomers) [Example 214, 3-cyclopropyl-8-{(2R)-2-hydroxy-2-[6-(1H-tetrazol-1-yl)pyridin-3-yl]ethyl}-2-(5-oxo-2,5-dihydrofuran-3-yl)-2,8-diazaspiro[4.5]decan-1-one] |
| 30 nM | O=C1C=C(N2C(=O)C3(CCN(C[C@H](O)c4ccc(-n5cnnn5)nc4)CC3)CC2C2CC2)CO1 (mixture of isomers) [Example 215, 3-cyclopropyl-8-{(2R)-2-hydroxy-2-[6-(1H-tetrazol-1-yl)pyridin-3-yl]ethyl}-2-(5-oxo-2,5-dihydrofuran-3-yl)-2,8-diazaspiro[4.5]decan-1-one] |
